Laboratory results as given in patent publication US12403118B1, “Cancer treatments using modified fatty acids and the carriers to administer them” (Zetagen Therapeutics, Inc., priority 2025, dated 2025).

Columns and labels:
[1] = test system: MCF7 breast cancer cells; assay: MTT assay of cell proliferation; format: cell-based; conditions: relative to no treatment
Method: The MTT Assay of Cell Proliferation: The MTT assay provides a measurement of cell proliferation (FIG. 5) in the MCF7 breast cancer cells. […] Experiments were conducted using three independent replicates and evaluated using a 1-way ANOVA. Relative to Controls at 24-hours (FIG. 5A), there was between a 6.9% and 11.94% decrease in cell number (**=p<0.0034, ***=p<0.0007, and ****=p<0.0001). Relative to Control cultures at 72-hours (FIG. 5B), there was between a 15.4% and 50.2% decrease in cell number (****=p<0.0001).
Combination Therapy Assessed Using the MTT Assay of Cell Proliferation: The MTT assay provides a measurement of cell proliferation (FIG. 5) in the MCF7 breast cancer cells. […] Control cultures were treated with 50-nM of Tomoxifen or 10-nM of Abemaciclib.

[2] = test system: Phosphoglycerate kinase; conditions: substrate Mg-ATP; cited from earlier work
[3] = Solubility in heated non-polar solvents and fatty acid solutions; format: physicochemical; conditions: heated to at least 90° C.; for solubility in fatty acid solutions: oleic acid, linoleic acid, vegetable oil, olive oil, canola oil, castor oil; for solubility in non-polar solvents: toluene, xylene, n-octane, cyclohexane, hexane, chloroform, acetonitrile, ether
[4] = target: TRPA1 channels (Homo sapiens, UniProt O75762); conditions: 20-μM Ca^2+; cited from earlier work
TRPA1 channels, sequence (O75762 whole entry): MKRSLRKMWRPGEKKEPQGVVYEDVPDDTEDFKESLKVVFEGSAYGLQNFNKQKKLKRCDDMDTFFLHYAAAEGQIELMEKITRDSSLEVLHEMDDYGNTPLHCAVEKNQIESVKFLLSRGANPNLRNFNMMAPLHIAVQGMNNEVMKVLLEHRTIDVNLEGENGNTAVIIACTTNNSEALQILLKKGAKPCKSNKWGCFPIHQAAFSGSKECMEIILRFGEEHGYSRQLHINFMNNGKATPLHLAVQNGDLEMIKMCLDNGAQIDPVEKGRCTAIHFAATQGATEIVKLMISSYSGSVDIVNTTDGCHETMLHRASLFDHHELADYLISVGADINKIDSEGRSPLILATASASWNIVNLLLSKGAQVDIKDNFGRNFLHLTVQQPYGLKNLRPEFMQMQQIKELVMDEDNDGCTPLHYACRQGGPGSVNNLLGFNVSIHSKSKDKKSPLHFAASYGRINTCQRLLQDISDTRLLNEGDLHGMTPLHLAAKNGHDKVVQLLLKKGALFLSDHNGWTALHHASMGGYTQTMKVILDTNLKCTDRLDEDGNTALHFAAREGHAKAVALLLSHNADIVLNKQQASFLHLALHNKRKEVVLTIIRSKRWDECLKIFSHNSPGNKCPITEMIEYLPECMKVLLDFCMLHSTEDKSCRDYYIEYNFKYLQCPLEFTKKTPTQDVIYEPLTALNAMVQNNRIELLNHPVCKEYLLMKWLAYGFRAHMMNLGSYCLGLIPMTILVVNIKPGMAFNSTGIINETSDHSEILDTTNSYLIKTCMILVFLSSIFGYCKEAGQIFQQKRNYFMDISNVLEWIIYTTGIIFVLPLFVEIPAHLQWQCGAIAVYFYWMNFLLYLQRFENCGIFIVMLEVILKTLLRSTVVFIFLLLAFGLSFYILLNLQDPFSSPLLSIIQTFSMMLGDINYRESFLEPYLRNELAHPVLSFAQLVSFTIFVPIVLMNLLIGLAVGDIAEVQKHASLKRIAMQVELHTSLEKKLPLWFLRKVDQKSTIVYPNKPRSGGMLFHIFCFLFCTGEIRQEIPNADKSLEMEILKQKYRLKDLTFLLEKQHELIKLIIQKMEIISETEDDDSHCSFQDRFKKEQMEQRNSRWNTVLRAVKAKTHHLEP

CCN1CCN(Cc2ccc(Nc3ncc(F)c(-c4cc(F)c5nc(C)n(C(C)C)c5c4)n3)nc2)CC1 [Abemaciclib]
decrease in cell number ([1]; MCF7, 24-hours, 10-nM Abemaciclib): 10.2% | decrease in cell number ([1]; MCF7, 72-hours, 10-nM Abemaciclib): 26.4%

Nc1ncnc2c1ncn2[C@@H]1O[C@H](COP(=O)(O)OP(=O)([O-])OP(=O)([O-])O)[C@@H](O)[C@H]1O.[Mg+2] [Mg-ATP]
K-value [2]: 0.073 mM

CC/C(=C(\c1ccccc1)c1ccc(OCCN(C)C)cc1)c1ccccc1 [Tamoxifen]
decrease in cell number ([1]; MCF7, 24-hours, 50-nM Tamoxifen): 54% | decrease in cell number ([1]; MCF7, 72-hours, 50-nM Tamoxifen): 80.3%

CCCCCCCCC(OC(C)=O)C(CCCCCCCC(=O)O)OC(C)=O (stereo not shown) [lanthanum (III) tri 9,10-diacetoxy octadecanoate]
solubility in fatty acid solutions [3]: soluble | solubility in non-polar solvents [3]: soluble

CCCCCCCCCCCC(=O)O [lanthanum (III) tridodeconoate]
solubility in fatty acid solutions [3]: soluble | solubility in non-polar solvents [3]: soluble

[La] [lanthanum]
IC50 [4]: 54 µM
